Measurements: ChEMBL document CHEMBL5537122, “Design, synthesis, and biological evaluation of 4-(2-fluorophenoxy)-7-methoxyquinazoline derivatives as dual EGFR/c-Met inhibitors for the treatment of NSCLC” (Eur J Med Chem, 2024)

Tests used:
PC-9 = test: Antiproliferative activity against human PC-9 cells overexpressing c-Met and EGFR assessed as reduction in cell viability incubated for 72 hrs by MTT assay; format: functional, cell-based; conditions: PC-9, 72 h
[1] = target: Epidermal growth factor receptor (Homo sapiens, UniProt P00533, L858R); test: biochemical
Sequence of Epidermal growth factor receptor (Homo sapiens, UniProt P00533, L858R) (P00533 25-1210 L858R limits assumed): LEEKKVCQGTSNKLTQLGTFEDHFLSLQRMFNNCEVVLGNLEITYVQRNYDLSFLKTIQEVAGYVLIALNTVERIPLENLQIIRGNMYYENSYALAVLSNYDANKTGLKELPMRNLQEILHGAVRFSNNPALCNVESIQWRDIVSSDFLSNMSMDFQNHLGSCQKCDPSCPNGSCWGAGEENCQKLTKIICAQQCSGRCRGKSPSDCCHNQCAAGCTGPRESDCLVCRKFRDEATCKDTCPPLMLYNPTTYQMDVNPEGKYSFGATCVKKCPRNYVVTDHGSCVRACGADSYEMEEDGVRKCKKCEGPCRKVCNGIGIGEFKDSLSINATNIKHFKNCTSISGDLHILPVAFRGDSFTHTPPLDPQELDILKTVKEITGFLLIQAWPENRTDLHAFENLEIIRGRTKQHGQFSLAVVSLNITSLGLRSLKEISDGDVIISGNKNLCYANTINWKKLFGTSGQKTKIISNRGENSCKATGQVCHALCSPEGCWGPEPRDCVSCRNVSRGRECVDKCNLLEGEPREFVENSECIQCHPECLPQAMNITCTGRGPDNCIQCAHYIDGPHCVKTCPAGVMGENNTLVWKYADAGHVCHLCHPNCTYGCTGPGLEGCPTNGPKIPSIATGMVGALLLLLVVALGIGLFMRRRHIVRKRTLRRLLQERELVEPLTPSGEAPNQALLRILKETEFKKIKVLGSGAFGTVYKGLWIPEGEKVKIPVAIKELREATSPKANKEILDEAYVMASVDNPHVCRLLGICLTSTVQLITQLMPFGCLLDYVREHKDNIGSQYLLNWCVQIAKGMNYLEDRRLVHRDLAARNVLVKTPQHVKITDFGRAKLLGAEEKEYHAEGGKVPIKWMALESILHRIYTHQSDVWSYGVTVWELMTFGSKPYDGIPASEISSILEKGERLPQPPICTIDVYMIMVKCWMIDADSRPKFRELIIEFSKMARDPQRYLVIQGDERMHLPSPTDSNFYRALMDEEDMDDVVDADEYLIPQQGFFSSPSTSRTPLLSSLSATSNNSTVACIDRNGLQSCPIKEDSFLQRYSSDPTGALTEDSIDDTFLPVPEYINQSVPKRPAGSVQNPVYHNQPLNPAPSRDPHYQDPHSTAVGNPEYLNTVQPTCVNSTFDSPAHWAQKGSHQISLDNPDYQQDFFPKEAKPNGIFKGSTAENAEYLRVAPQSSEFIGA

[2] = target: Epidermal growth factor receptor (Homo sapiens, UniProt P00533); test: biochemical
Sequence of Epidermal growth factor receptor (Homo sapiens, UniProt P00533) (P00533 whole entry): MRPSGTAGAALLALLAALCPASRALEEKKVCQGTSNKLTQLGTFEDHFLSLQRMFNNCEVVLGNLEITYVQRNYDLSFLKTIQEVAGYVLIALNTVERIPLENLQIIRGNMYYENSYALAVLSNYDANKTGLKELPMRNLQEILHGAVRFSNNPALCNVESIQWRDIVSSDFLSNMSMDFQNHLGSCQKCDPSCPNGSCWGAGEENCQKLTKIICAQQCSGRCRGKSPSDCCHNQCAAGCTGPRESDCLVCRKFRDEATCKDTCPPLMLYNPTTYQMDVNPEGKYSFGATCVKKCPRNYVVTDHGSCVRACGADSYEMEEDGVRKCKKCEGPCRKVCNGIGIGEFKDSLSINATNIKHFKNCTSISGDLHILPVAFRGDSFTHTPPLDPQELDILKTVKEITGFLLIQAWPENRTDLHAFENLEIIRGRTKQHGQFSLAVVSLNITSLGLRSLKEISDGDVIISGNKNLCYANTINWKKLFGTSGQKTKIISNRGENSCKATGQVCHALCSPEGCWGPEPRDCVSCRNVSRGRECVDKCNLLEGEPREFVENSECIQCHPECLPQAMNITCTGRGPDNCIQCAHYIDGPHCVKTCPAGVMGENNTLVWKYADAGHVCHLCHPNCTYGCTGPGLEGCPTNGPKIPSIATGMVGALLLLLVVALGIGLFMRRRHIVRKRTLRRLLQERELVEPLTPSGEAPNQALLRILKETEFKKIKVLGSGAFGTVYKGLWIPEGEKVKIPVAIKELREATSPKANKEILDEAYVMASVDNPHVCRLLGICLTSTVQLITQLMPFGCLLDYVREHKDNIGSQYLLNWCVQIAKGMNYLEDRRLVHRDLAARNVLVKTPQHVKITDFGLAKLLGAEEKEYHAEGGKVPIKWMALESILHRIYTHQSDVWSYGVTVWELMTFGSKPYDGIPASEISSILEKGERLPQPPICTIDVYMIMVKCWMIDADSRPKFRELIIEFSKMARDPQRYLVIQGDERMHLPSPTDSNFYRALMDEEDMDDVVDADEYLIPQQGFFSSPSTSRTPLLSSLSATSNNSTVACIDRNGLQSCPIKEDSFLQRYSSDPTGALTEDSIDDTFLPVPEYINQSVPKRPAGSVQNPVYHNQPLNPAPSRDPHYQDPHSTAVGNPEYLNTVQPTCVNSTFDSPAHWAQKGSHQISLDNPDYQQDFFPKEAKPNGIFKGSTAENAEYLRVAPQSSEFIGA
Description: Inhibition of N-terminal GST tagged human recombinant EGFR (695 to end residues) expressed in baculovirus infected Sf9 cells using Poly (4:1 Glu, Tyr) as substrate incubated for 60 mins in presence of ATP by ADP-Glo luminescent assay

[3] = target: Hepatocyte growth factor receptor (Homo sapiens, UniProt P08581); test: biochemical
Sequence of Hepatocyte growth factor receptor (P08581 whole entry): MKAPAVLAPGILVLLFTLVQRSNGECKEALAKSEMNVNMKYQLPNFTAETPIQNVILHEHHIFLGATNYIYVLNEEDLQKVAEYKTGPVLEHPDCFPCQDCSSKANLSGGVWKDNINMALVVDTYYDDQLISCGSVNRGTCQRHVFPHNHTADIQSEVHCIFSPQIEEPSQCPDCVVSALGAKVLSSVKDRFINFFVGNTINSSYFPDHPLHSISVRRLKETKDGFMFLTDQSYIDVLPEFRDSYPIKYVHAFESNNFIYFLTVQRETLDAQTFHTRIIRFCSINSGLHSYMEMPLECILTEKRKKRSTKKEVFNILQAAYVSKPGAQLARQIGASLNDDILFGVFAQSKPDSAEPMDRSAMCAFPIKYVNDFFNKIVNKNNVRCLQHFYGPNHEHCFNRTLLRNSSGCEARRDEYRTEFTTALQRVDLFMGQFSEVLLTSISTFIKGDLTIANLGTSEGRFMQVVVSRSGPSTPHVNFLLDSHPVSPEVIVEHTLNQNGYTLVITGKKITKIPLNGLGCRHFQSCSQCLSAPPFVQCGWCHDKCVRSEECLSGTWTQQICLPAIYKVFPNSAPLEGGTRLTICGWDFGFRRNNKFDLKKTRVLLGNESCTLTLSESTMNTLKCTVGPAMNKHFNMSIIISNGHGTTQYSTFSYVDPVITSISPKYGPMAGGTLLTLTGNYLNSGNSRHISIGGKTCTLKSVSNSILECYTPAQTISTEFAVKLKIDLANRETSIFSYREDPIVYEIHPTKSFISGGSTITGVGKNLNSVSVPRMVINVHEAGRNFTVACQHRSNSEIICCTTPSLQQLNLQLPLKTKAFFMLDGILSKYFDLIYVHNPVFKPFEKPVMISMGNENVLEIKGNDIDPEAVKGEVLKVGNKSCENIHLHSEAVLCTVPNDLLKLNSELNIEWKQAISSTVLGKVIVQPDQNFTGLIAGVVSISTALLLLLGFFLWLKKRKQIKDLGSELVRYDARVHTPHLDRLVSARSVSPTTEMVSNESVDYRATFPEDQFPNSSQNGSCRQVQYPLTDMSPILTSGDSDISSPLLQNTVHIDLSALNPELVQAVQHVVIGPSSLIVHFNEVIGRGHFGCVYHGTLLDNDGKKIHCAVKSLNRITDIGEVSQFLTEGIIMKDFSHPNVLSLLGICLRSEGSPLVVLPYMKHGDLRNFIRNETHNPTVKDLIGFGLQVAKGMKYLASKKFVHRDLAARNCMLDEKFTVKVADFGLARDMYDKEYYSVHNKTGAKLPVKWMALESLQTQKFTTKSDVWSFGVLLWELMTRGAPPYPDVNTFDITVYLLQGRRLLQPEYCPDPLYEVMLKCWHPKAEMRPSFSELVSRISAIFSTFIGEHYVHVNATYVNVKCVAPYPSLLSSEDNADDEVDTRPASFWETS
Description: Inhibition of N-terminal GST tagged human recombinant c-Met (956 to end residues) expressed in baculovirus infected Sf9 cells using Poly (4:1 Glu, Tyr) as substrate incubated for 60 mins in presence of ATP by ADP-Glo luminescent assay

NCI-H1975 = test: Antiproliferative activity against human NCI-H1975 cells overexpressing c-Met and EGFR assessed as reduction in cell viability incubated for 72 hrs by MTT assay; format: functional, cell-based; conditions: NCI-H1975, 72 h
A549 = test: Antiproliferative activity against human A549 cells overexpressing c-Met and EGFR assessed as reduction in cell viability incubated for 72 hrs by MTT assay; format: functional, cell-based; conditions: A549, 72 h

| Compound | IC50 (PC-9) | IC50 [1] | IC50 [2] | IC50 [3] | IC50 (NCI-H1975) | IC50 (A549) |
| --- | --- | --- | --- | --- | --- | --- |
| C/C=C/C(=O)Nc1cc2c(Oc3ccc(NC(=O)CCCc4ccc(F)cc4)cc3F)ncnc2cc1OC | 2.31 µM | 5.72 µM | 4.54 µM | 0.67 µM | 4.78 µM | > 50 µM |
| CCCCC(=O)Nc1cc2c(Oc3ccc(NC(=O)CCCc4ccccc4)cc3F)ncnc2cc1OC | 8.84 µM | > 10 µM | > 10 µM | 0.605 µM | 8.39 µM | 7.15 µM |
| CCC(=O)Nc1cc2c(Oc3ccc(NC(=O)NCCC4CCCCC4)cc3F)ncnc2cc1OC | > 50 µM | > 10 µM | 4.69 µM | 0.143 µM | 2.94 µM | 2.43 µM |
| CCC(=O)Nc1cc2c(Oc3ccc(NC(=O)NCCc4ccc(OC)c(OC)c4)cc3F)ncnc2cc1OC | > 50 µM | > 10 µM | > 10 µM | 0.0905 µM | > 50 µM | > 50 µM |
| C/C=C/C(=O)Nc1cc2c(Oc3ccc(NC(=O)CCCc4ccsc4)cc3F)ncnc2cc1OC | 1.63 µM | > 10 µM | > 10 µM | 1.39 µM | > 50 µM | 21.7 µM |
| CCCC(=O)Nc1cc2c(Oc3ccc(NC(=O)CCCc4ccc(OC)cc4)cc3F)ncnc2cc1OC | > 50 µM | 8.96 µM | 7.64 µM | 0.607 µM | 16.2 µM | 7.74 µM |
| C=CC(=O)Nc1cc2c(Oc3ccc(NC(=O)c4c(-c5c(Cl)cccc5Cl)noc4C)cc3F)cccc2cc1OC | 6.73 µM |  |  | 1.77 µM | 4.9 µM | 4.57 µM |
| COc1cc2ncnc(Oc3ccc(NC(=O)CCCc4ccc(C)cc4)cc3F)c2cc1NC(=O)CCC(C)C | > 50 µM | > 10 µM | > 10 µM | 3.07 µM | 27.5 µM | > 50 µM |
| CCC(=O)Nc1cc2c(Oc3ccc(NC(=O)c4c(-c5c(Cl)cccc5Cl)noc4C)cc3F)cccc2cc1OC | 5.22 µM | > 10 µM | > 10 µM | 3.48 µM | 4.91 µM | 7.95 µM |
| CCCC(=O)Nc1cc2c(Oc3ccc(NC(=O)CCCc4ccsc4)cc3F)ncnc2cc1OC | 13.8 µM | > 10 µM | > 10 µM | 0.959 µM | > 50 µM | > 50 µM |
| C/C=C/C(=O)Nc1cc2c(Oc3ccc(NC(=O)c4sc(-c5ccccc5)nc4C)cc3F)cccc2cc1OC | > 50 µM | > 10 µM | 2.32 µM | 0.0964 µM | > 50 µM | 44.2 µM |
| CCCC(=O)Nc1cc2c(Oc3ccc(NC(=O)c4sc(-c5ccccc5)nc4C)cc3F)cccc2cc1OC | > 50 µM | > 10 µM | > 10 µM | 0.0719 µM | 5.1 µM | 8.15 µM |
| CCCCC(=O)Nc1cc2c(Oc3ccc(NC(=O)CCCc4ccsc4)cc3F)ncnc2cc1OC | > 50 µM | > 10 µM | > 10 µM | 1.56 µM | 37.6 µM | > 50 µM |
| C=CC(=O)Nc1cc2c(Oc3ccc(NC(=O)NCCc4csc(Br)c4)cc3F)ncnc2cc1OC | 3.64 µM | 1.51 µM | 2.07 µM | 0.253 µM | 6.07 µM | 4.08 µM |
| C/C=C/C(=O)Nc1cc2c(Oc3ccc(NC(=O)CCCc4ccc(OC)cc4)cc3F)ncnc2cc1OC | 8.17 µM | > 10 µM | > 10 µM | 0.493 µM | > 50 µM | 6.43 µM |
| CCC(=O)Nc1cc2c(Oc3ccc(NC(=O)CCCc4ccc(OC)cc4)cc3F)ncnc2cc1OC | 9.28 µM | > 10 µM | > 10 µM | 0.273 µM | 7.05 µM | 2.87 µM |

| Compound | IC50 (PC-9) | IC50 [1] | IC50 [2] | IC50 [3] | IC50 (NCI-H1975) | IC50 (A549) |
| --- | --- | --- | --- | --- | --- | --- |
| C=CC(=O)Nc1cc2c(Oc3ccc(NC(=O)CCCc4ccc(F)cc4)cc3F)ncnc2cc1OC | 4.56 µM | 1.07 µM | 0.782 µM | 0.355 µM | 8.21 µM | 2.07 µM |
| C=CC(=O)Nc1cc2c(Oc3ccc(NC(=O)NCCC4CCCCC4)cc3F)ncnc2cc1OC | 1.68 µM | 1.39 µM | 1.28 µM | 0.088 µM | 4.26 µM | 1.57 µM |
| CCCC(=O)Nc1cc2c(Oc3ccc(NC(=O)CCCc4ccccc4)cc3F)ncnc2cc1OC | 9.31 µM | 4.65 µM | 2.65 µM | 0.316 µM | 4.96 µM | 7.66 µM |
| COc1cc2ncnc(Oc3ccc(NC(=O)CCCc4ccc(F)cc4)cc3F)c2cc1NC(=O)CCC(C)C | > 50 µM | > 10 µM | > 10 µM | 0.712 µM | 12 µM | > 50 µM |
| CCCC(=O)Nc1cc2c(Oc3ccc(NC(=O)n4c(=O)c(-c5ccccc5)c(C)n4C)cc3F)cccc2cc1OC | > 50 µM | > 10 µM | 4.21 µM | 0.00411 µM | > 50 µM | 10.2 µM |
| CCCCC(=O)Nc1cc2c(Oc3ccc(NC(=O)CCCc4ccc(OC)cc4)cc3F)ncnc2cc1OC | > 50 µM | > 10 µM | > 10 µM | 0.824 µM | 43.4 µM | 29.8 µM |
| COc1cc2ncnc(Oc3ccc(NC(=O)CCCc4ccsc4)cc3F)c2cc1NC(=O)CCC(C)C | > 50 µM | > 10 µM | > 10 µM | 5.55 µM | > 50 µM | 13 µM |
| CCCC(=O)Nc1cc2c(Oc3ccc(NC(=O)CCCc4ccc(C)cc4)cc3F)ncnc2cc1OC | 28.9 µM | > 10 µM | > 10 µM | 0.678 µM | 14.2 µM | 14 µM |
| COc1ccc(CCCC(=O)Nc2ccc(Oc3ncnc4cc(OC)c(NC(=O)CCC(C)C)cc34)c(F)c2)cc1 | > 50 µM | > 10 µM | > 10 µM | > 10 µM | 10.5 µM | > 50 µM |
| CCC(=O)Nc1cc2c(Oc3ccc(NC(=O)CCCc4ccc(C)cc4)cc3F)ncnc2cc1OC | 7.84 µM | > 10 µM | 8.43 µM | 1.18 µM | 19.1 µM | 3.29 µM |
| C/C=C/C(=O)Nc1cc2c(Oc3ccc(NC(=O)CCCc4ccccc4)cc3F)ncnc2cc1OC | 5.78 µM | 3.54 µM | 2.89 µM | 0.465 µM | 4.65 µM | 5.41 µM |
| CCCCC(=O)Nc1cc2c(Oc3ccc(NC(=O)CCCc4ccc(F)cc4)cc3F)ncnc2cc1OC | > 50 µM | > 10 µM | > 10 µM | 0.533 µM | 41.2 µM | > 50 µM |
| CCC(=O)Nc1cc2c(Oc3ccc(NC(=O)NCCc4csc(Br)c4)cc3F)ncnc2cc1OC | 4.97 µM | > 10 µM | > 10 µM | 0.247 µM | 11.1 µM | 8.42 µM |
| CCCC(=O)Nc1cc2c(Oc3ccc(NC(=O)CCCc4ccc(F)cc4)cc3F)ncnc2cc1OC | > 50 µM | > 10 µM | > 10 µM | 0.477 µM | 12 µM | > 50 µM |
| CCC(=O)Nc1cc2c(Oc3ccc(NC(=O)c4sc(-c5ccccc5)nc4C)cc3F)cccc2cc1OC | 2.94 µM | > 10 µM | 3.9 µM | 0.0706 µM | 3.56 µM | 2.35 µM |
